Test results reported in patent US7932270B2 (Cytokinetics, Inc., priority 2006, dated 2011).

Biological target: T1, chicken gizzard smooth muscle myosin subfragment-1 chemically crosslinked to cardiac or skeletal actin (Gallus gallus, UniProt P10587)
T1 construct: chicken gizzard smooth muscle myosin subfragment-1; from tissue; host or cells: chicken gizzard
Assay: Smooth muscle myosin ATPase dose response assay (pyruvate kinase/horseradish peroxidase/pyruvate oxidase-coupled, amplex red fluorescence)
Type: biochemical
Conditions: read-out: IC50 Arithmetic Mean
Method: In Vitro Model of Dose Dependent Smooth Muscle Myosin ATPase Modulation
Screening assays were performed using a pyruvate kinase and lactate dehydrogenase-coupled ATPase assay containing the following reagents: Potassium PIPES (50 mM), MgCl2 (3 mM), KCl (100 mM), ATP (0.15 mM), DTT (1 mM), BSA (0.1 mg/ml), NADH (0.5 mM), PEP (1.5 mM), pyruvate kinase (4 U/ml), lactate dehydrogenase (8 U/ml), and antifoam (50 ppm) (concentrations expressed are final assay concentrations). The pH was adjusted to 6.80 at 22° C. by addition of potassium hydroxide. Lead optimization assays were performed with a more sensitive pyruvate kinase/horseradish peroxidase/pyruvate oxidase-coupled ATPase assay containing the following reagents: Potassium PIPES (12 mM), MgCl2 (2 mM), KCl (100 mM), ATP (0.15 mM), BSA (0.05 mg/ml), potassium phosphate (2 mM), amplex red (0.1 mM), PEP (0.1 mM), pyruvate kinase (4 U/ml), horseradish peroxidase (0.5 U/ml), pyruvate oxidase (0.5 U/ml), and antifoam (50 ppm) (concentrations expressed are final assay concentrations). The pH was adjusted to 7.00 at 22° C. by addition of potassium hydroxide.
The protein components specific to this assay are chicken gizzard smooth muscle myosin subfragment-1 that has been chemically crosslinked to either cardiac or skeletal actin using an excess of 1-Ethyl-3-[3-dimethylaminopropyl]carbodiimide hydrochloride and N-hydroxysuccinimide. The exact concentration of the crosslinked smooth muscle myosin in the assay is determined empirically, by titration to achieve a desired rate of ATP hydrolysis. The concentration varies between protein preparations due to variations in the fraction of active molecules in each preparation.
Compound dose response assays are performed by first preparing a dilution series of test compound, each with an assay mixture containing potassium PIPES, MgCl2, KCl, ATP, BSA, potassium phosphate, amplex red, PEP, crosslinked smooth muscle actomyosin (subfragment-1), antifoam, and water. The assay is started by adding an equal volume of solution containing potassium Pipes, MgCl2, KCl, BSA, potassium phosphate, pyruvate kinase, horseradish peroxidase, pyruvate oxidase, antifoam, and water. ATP hydrolysis is monitored by measuring the fluorescence of amplex red (excitation at 480 nm, emission at 615 nm). The resulting dose response curve is fit by the 4 parameter equation y=Bottom+((Top-Bottom)/(1+((IC50/X)^Hill))). The IC50 is defined as the concentration at which ATPase activity is midway between the top and bottom of the dose response curve.

T1 sequence (P02607 2-151): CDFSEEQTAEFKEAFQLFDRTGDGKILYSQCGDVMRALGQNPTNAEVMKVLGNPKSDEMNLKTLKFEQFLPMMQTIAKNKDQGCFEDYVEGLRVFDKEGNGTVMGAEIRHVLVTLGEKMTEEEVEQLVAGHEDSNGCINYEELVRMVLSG
T1 sequence (P10587 84-789): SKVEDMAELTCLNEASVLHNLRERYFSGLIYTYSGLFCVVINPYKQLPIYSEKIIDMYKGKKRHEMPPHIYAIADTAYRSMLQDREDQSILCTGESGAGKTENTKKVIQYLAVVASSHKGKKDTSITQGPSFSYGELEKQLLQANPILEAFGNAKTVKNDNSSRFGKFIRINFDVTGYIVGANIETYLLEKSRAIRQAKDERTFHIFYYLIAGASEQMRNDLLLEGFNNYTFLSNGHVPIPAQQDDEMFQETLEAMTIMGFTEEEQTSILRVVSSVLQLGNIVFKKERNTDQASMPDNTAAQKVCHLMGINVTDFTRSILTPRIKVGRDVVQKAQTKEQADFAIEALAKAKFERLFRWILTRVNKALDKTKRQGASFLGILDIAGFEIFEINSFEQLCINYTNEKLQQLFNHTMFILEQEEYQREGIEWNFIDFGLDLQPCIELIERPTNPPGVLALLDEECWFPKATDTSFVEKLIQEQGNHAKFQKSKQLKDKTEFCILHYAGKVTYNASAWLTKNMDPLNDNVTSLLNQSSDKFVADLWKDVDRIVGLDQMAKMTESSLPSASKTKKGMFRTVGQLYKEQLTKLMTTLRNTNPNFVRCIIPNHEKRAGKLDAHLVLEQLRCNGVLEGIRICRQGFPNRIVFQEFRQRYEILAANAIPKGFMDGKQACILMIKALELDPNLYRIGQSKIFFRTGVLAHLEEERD

| SMILES | IC50 [µM] |
| --- | --- |
| NCCCC(=O)N1CCCC1CNC(=O)c1cc(F)c(-c2cc[nH]n2)nc1NCCc1cccc(F)c1 [N-{[(2R)-1-(4-aminobutanoyl)pyrrolidin-2-yl]methyl}(5-fluoro-2-{[2-(3-fluorophenyl)ethyl]amino}-6-pyrazol-3-yl(3-pyridyl))carboxamide] | 0.169 |
| Cn1cc(-c2nc(NCCc3cccc(F)c3)c(C(=O)NC[C@H]3CCCN3C(=O)[C@@H](N)CO)cc2F)cn1 [N-{[(2R)-1-((2S)-2-amino-3-hydroxypropanoyl)pyrrolidin-2-yl]methyl}(5-fluoro-2-{[2-(3-fluorophenyl)ethyl]amino}-6-(1-methylpyrazol-4-yl)(3-pyridyl))carboxamide] | 0.072 |
| CN1CCN(C(=O)CCCN)[C@@H](CNC(=O)c2ccc(-c3ccccc3C#N)nc2NCCc2cccc(F)c2)C1 [N-{[(2S)-1-(4-aminobutanoyl)-4-methylpiperazin-2-yl]methyl}(6-(2-cyanophenyl)-2-{[2-(3-fluorophenyl)ethyl]amino}(3-pyridyl))carboxamide] | 2.32 |
| N#Cc1ccccc1-c1ccc(C(=O)NC[C@@H]2CNCC(=O)N2)c(NCCc2cccc(F)c2)n1 [N-[((2S)-6-oxopiperazin-2-yl)methyl](6-(2-cyanophenyl)-2-{[2-(3-fluorophenyl)ethyl]amino}(3-pyridyl))carboxamide] | 0.819 |
| CS(=O)(=O)N1CCCC[C@H]1CNC(=O)c1ccc(-c2ccccc2C#N)nc1NCCc1cccc(F)c1 [N-{[(2S)-1-(methylsulfonyl)(2-piperidyl)]methyl}(6-(2-cyanophenyl)-2-{[2-(3-fluorophenyl)ethyl]amino}(3-pyridyl))carboxamide] | 1.63 |
| CS(=O)(=O)N1CC[C@@H]1CNC(=O)c1ccc(-c2ccccc2C#N)nc1NCCc1cccc(F)c1 [N-{[(2R)-1-(methylsulfonyl)azetidin-2-yl]methyl}(6-(2-cyanophenyl)-2-{[2-(3-fluorophenyl)ethyl]amino}(3-pyridyl))carboxamide] | 1.52 |
| NCCCN1C(=O)CNC[C@@H]1CNC(=O)c1ccc(-c2cn[nH]c2)nc1NCCc1cccc(F)c1 [N-{[(2R)-1-(3-aminopropyl)-6-oxopiperazin-2-yl]methyl}(2-{[2-(3-fluorophenyl)ethyl]amino}-6-pyrazol-4-yl(3-pyridyl))carboxamide] | 2.34 |
| O=C(NC[C@H]1CCCN1C(=O)CCCO)c1ccc(-c2cn[nH]c2)nc1NCCc1cccc(F)c1 [N-{[(2R)-1-(4-hydroxybutanoyl)pyrrolidin-2-yl]methyl}(2-{[2-(3-fluorophenyl)ethyl]amino}-6-pyrazol-4-yl(3-pyridyl))carboxamide] | 0.963 |
| CN(CCNC(=O)c1ccc(-c2ccccc2C#N)nc1NCCc1cccc(F)c1)C(=O)CNC(=O)OC(C)(C)C [2-[(tert-butoxy)carbonylamino]-N-{2-[(6-(2-cyanophenyl)-2-{[2-(3-fluorophenyl)ethyl]amino}(3-pyridyl))carbonylamino]ethyl}-N-methylacetamide] | 15.3 |
| N#Cc1ccccc1-c1ccc(C(=O)NCCNC(=O)CCCN)c(NCCc2cccc(F)c2)n1 [4-amino-N-{2-[(6-(2-cyanophenyl)-2-{[2-(3-fluorophenyl)ethyl]amino}(3-pyridyl))carbonylamino]ethyl}butanamide] | 1.27 |
| N#Cc1ccccc1-c1ccc(C(=O)NCC2CCCCC(=O)N2)c(NCCc2cccc(F)c2)n1 (centres unmarked) [(6-(2-cyanophenyl)-2-{[2-(3-fluorophenyl)ethyl]amino}(3-pyridyl))-N-[(7-oxoazaperhydroepin-2-yl)methyl]carboxamide] | 0.095 |
| CN(CCNC(=O)c1ccc(-c2ccccc2C#N)nc1NCCc1cccc(F)c1)C(=O)CCN [3-amino-N-{2-[(6-(2-cyanophenyl)-2-{[2-(3-fluorophenyl)ethyl]amino}(3-pyridyl))carbonylamino]ethyl}-N-methylpropanamide] | 1.78 |
| CN(C)CCCNC(=O)CNC(=O)c1ccc(-c2ccccc2C#N)nc1NCCc1cccc(F)c1 [N-[3-(dimethylamino)propyl]-2-[(6-(2-cyanophenyl)-2-{[2-(3-fluorophenyl)ethyl]amino}(3-pyridyl))carbonylamino]acetamide] | 12.2 |
| N#Cc1ccccc1-c1ccc(C(=O)NCCN2CCNCC2)c(NCCc2cccc(F)c2)n1 [(6-(2-cyanophenyl)-2-{[2-(3-fluorophenyl)ethyl]amino}(3-pyridyl))-N-(2-piperazinylethyl)carboxamide] | 16.2 |
| CC(=O)N1CCC(CNC(=O)c2ccc(-c3ccccc3C#N)nc2NCCc2cccc(F)c2)CC1 [N-[(1-acetyl(4-piperidyl))methyl](6-(2-cyanophenyl)-2-{[2-(3-fluorophenyl)ethyl]amino}(3-pyridyl))carboxamide] | 1.7 |

The remaining lines, values ahead:

| IC50 [µM] | SMILES |
| --- | --- |
| 30.3 | O=C(NCc1cccnc1)c1ccc(-c2ccccc2)nc1NCCCn1ccnc1 [{2-[(3-imidazolylpropyl)amino]-6-phenyl(3-pyridyl)}-N-(3-pyridylmethyl)carboxamide] |
| 0.119 | Cc1csc(-c2ccc(C(=O)NCc3cccnc3)c(NCCc3cc(F)cc(F)c3)n2)c1 [(2-{[2-(3,5-difluorophenyl)ethyl]amino}-6-(4-methyl(2-thienyl))(3-pyridyl))-N-(3-pyridylmethyl)carboxamide] |
| 0.079 | O=C(NCc1cccnc1)c1ccc(-c2ccccc2)nc1NCCc1cc(F)ccc1F [(2-{[2-(2,5-difluorophenyl)ethyl]amino}-6-phenyl(3-pyridyl))-N-(3-pyridylmethyl)carboxamide] |
| 0.31 | N#Cc1ccccc1-c1ccc(C(=O)NCCc2ncccc2CN)c(NCCc2cccc(F)c2)n1 [N-{2-[3-(aminomethyl)(2-pyridyl)]ethyl}(6-(2-cyanophenyl)-2-{[2-(3-fluorophenyl)ethyl]amino}(3-pyridyl))carboxamide] |
| 0.039 | O=C(NCc1cccc(NCCO)n1)c1ccc(-c2cn[nH]c2)nc1NCCc1cccc(F)c1 [(2-{[2-(3-fluorophenyl)ethyl]amino}-6-pyrazol-4-yl(3-pyridyl))-N-({6-[(2-hydroxyethyl)amino](2-pyridyl)}methyl)carboxamide] |
| 71 | O=C(NCc1ccc(-c2ccccc2)nc1NCCc1cccc(F)c1)Nc1cccnc1 [N-[(2-{[2-(3-fluorophenyl)ethyl]amino}-6-phenyl(3-pyridyl))methyl](3-pyridylamino)carboxamide] |
| 0.136 | Cn1cc(-c2ccc(C(=O)NCc3cccc(CN)n3)c(NCCc3cccc(F)c3)n2)cn1 [N-{[6-(aminomethyl)(2-pyridyl)]methyl}(2-{[2-(3-fluorophenyl)ethyl]amino}-6-(1-methylpyrazol-4-yl)(3-pyridyl))carboxamide] |
| 2.7 | NCc1ccc(-c2ccc(C(=O)NCc3cccnc3)c(NCCc3cccc(F)c3)n2)s1 [(6-[5-(aminomethyl)(2-thienyl)]-2-{[2-(3-fluorophenyl)ethyl]amino}(3-pyridyl))-N-(3-pyridylmethyl)carboxamide] |
| 16.4 | NC(=O)c1ccccc1-c1ccc(C(=O)NCc2cccnc2)c(NCCc2cccc(F)c2)n1 [2-(6-{[2-(3-fluorophenyl)ethyl]amino}-5-[N-(3-pyridylmethyl)carbamoyl]-2-pyridyl)benzamide] |
| 1.06 | COc1ccc(-c2ccc(C(=O)NCc3cccnc3)c(NCCc3ccccn3)n2)cc1 [{6-(4-methoxyphenyl)-2-[(2-(2-pyridyl)ethyl)amino](3-pyridyl)}-N-(3-pyridylmethyl)carboxamide] |
| 11.4 | CCCNc1nc(-c2ccccc2)ccc1C(=O)NCc1cccnc1 [[6-phenyl-2-(propylamino)(3-pyridyl)]-N-(3-pyridylmethyl)carboxamide] |
| 0.092 | O=C(NCc1cc[nH]n1)c1ccc(-c2cc[nH]n2)nc1NCCc1cccc(F)c1 [(2-{[2-(3-fluorophenyl)ethyl]amino}-6-pyrazol-3-yl(3-pyridyl))-N-(pyrazol-3-ylmethyl)carboxamide] |
| 0.019 | NCc1cccc(CNC(=O)c2ccc(-c3ccccc3)nc2NCCc2cccc(F)c2)n1 [N-{[6-(aminomethyl)(2-pyridyl)]methyl}(2-{[2-(3-fluorophenyl)ethyl]amino}-6-phenyl(3-pyridyl))carboxamide] |
| 0.045 | O=C(NCc1ccccn1)c1ccc(-c2ccc(CO)s2)nc1NCCc1cccc(F)c1 [(2-{[2-(3-fluorophenyl)ethyl]amino}-6-[5-(hydroxymethyl)(2-thienyl)](3-pyridyl))-N-(2-pyridylmethyl)carboxamide] |
